US11566044B2, “Disulfide bond containing compounds and uses thereof” (THE UNIVERSITY OF QUEENSLAND, priority 2017, dated 2023)

Experiment: DTNB assay: stability of the S—S bond to 20% v/v piperidine in DMF (Fmoc-SPPS conditions)
Format: physicochemical
Conditions: 20% v/v piperidine in DMF for 6 h, absorbance at 308 and 412 nm
Description: Prior to exploring further applications of the novel disulfide-bridged amino acid, the stability of its —S—S— bond to reagents/conditions employed during Fmoc-SPPS had to be established. For each deprotection step performed during peptide synthesis, a resin bound random amino acid is exposed to basic reagents with 20% v/v piperidine in DMF. —S—S— bond stability to these basic conditions was therefore trialled using a di-Boc protected disulfide bridged amino acid of the invention (compound 11), since the Boc protecting groups themselves would be stable to the basic conditions. […] Premature reduction of the disulfide-containing amino acid by piperidine would lead to the formation of free thiols that react with DTNB releasing NTB^2−, which can be readily identified spectrophotometrically at 412 nm.
DTNB (1 mg) was dissolved in 1 mL of methanol and a 1 mg/mL stock solution was prepared. A DTNB calibration curve was prepared by measurement of the absorbance (λmax=308 nm) over a range of concentrations (5, 10, 15, 20, and 25 μg/mL) in the presence of 20% v/v piperidine in DMF (100 μL). […]
Stability of the disulfide-bridged amino acid (compound 11) to basic conditions was assessed next, where it was first incubated with 20% v/v piperidine in DMF for up to 6 h and from that different concentrations of samples were prepared. […]

With `COC(=O)[C@H](CSSC(C)(C)CNC(=O)OC(C)(C)C)NC(=O)OC(C)(C)C` [compound 11, Boc-Cys(S—SC(CH3)2CH2NH(Boc))—OCH3] the “Base stability of the S—S bond (free thiols generated/detected)” value was “no free thiols were generated/detected”.
